# Results published in US20240226160A9, “ACTIVITY-INDUCIBLE FUSION PROTEINS HAVING A HEAT SHOCK PROTEIN 90 BINDING DOMAIN” (Seattle Children's Hospital d/b/a Seattle Children's …, priority 2021, published 2024).
# Positions count from the first letter of the chain named.
# Experiments:
# EBD(ES8) = target: T1, EBD(ES8) (Homo sapiens, UniProt P03372, E353A); assay: CD107a activation assay (flow cytometry MFI); type: cell-based; conditions: for CD107a response of EBD(ES8) to drug: 24 hr preconditioning, 4 hours co-culture
# T1 sequence (P03372 282-595 E353A): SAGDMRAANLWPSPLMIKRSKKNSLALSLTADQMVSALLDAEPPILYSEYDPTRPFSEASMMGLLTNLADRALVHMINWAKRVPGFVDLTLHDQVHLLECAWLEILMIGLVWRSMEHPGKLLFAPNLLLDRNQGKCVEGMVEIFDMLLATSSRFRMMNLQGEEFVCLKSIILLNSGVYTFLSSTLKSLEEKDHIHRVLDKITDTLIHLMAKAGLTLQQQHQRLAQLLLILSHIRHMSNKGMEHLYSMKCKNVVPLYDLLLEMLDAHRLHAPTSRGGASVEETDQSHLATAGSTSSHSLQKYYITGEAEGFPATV
# Description: FIGS. 28A, 28B. (28A) CD107a activation assay: huCD19CAR-EBD(4OHT) linker variants vs K562+CD19t. […] To achieve this, T cells (including mock and constitutively active CAR controls) were preconditioned with target drug concentration(s) for 24 hrs, then exposed to a tumor line expressing their target antigen (CD19 or B7H3). After 4 hours of co-culture with target tumors at various drug concentrations, the T cells were assessed for a) activation and degranulation by staining for CD107a and b) cell surface CAR-EBD by staining for human scFv (which works for both B7H3CAR and huCD19CAR), then running on flow cytometry. MFI (median fluorescence intensity) was determined for each stain on each sample under each condition and plotted on a log scale of drug concentration. EC10 and EC90 (effective concentration 10% and 90%) were calculated in Graphpad Prism for CD107a expression and function as estimates for the drug concentration required for each construct to turn “on” or “off”. Positive and negative controls for each CAR are presented in the bar graph. […] EBD(4OHT) responds to 4-OHT and (Z)-endoxifen, but not to CMP8 or ES8. The responsiveness of degranulation to target antigen in the presence of inducer molecule is largely similar between the Gly linker variants. EBD(4OHT) is very sensitive to its intended inducer molecules, beginning to activate (EC10) at single nanomolar concentrations and becoming fully activated (EC90) at double digit nanomolar concentrations. […] Both EBD(CMP8) and EBD(ES8) respond to 4OHT.
# huCD19CAR-EBD(4OHT) = assay: Anti-CD3zeta western blot with band quantification; type: cell-based; conditions: 500 nM, 24 hr incubation, vs 0 nM
# Description: FIG. 26. Anti-zeta Western Blot evaluating huCD19CAR-EBD(4OHT) with differing Glycine linkers in 0 nM and 500 nM of 4OHT OR (Z)-endoxifen. Protein processing and expression of huCD19CAR-EBD with different linkers between the CAR and the EBD was evaluated using an anti-CD3zeta western blot analysis. Whole cell lysates were made for the huCD19CAR-EBD(4OHT) T cell lines with either a 1Glycline, 2Glycine or 3Glycine linker between the CAR and EBD domains in 0 nM and 500 nM 4OHT/(Z)-endoxifen drug conditions following a 24 hr incubation. Whole cell lysates were also made for the Mock T cell line and the CAR alone T cell line under the same conditions. The western blot was imaged and analyzed on the LiCOR Odyssey. Additionally, protein band quantification was performed using the LiCOR Odyssey. CAR zeta chain expression is observed for all CAR-1/2/3Glylinker-EBD lines in both the no drug and maximum drug conditions.
# B7H3 EBD(CMP8) CAR = target: T2, B7H3 EBD(CMP8) CAR (Homo sapiens, UniProt P03372, G521R/L384M/M421G); assay: Jurkat iSynPro eGFP:ffluc reporter assay (GFP by flow cytometry); type: cell-based
# T2 construct: expressed in transfected cells; host or cells: clonal Jurkat iSynPro eGFP:ffluc reporter cell line (transduced)
# T2 sequence (P03372 282-595 L384M/M421G/G521R): T1 sequence (P03372 282-595 E353A) with A72E, L103M, M140G, G240R
# Description: FIG. 11. Design of B7H3 CAR EBD mutant study. […] Jurkat iSynPro lines included cJ10792: Jurkat iSynPro-GFP:ffluc; cJ13093: Jurkat iSynPro-GFP:ffluc+B7H3 CAR; cJ13094: Jurkat iSynPro-GFP:ffluc+B7H3 CAR EBD (4-OHT); and cJ13095: Jurkat iSynPro-GFP:ffluc+B7H3 CAR EBD (CMP8) with a K562 parental target. 4-OHT and CMP8 concentrations of 0 nM, 500 nM and 1000 nM were tested for each cell line.
# FIG. 16. Design of activation curve study. The objective of the study was to examine activation curves of CAR EBD Jurkat iSynPro lines in an increasing presence of 4-OHT, (Z)-endoxifen, or CMP8.
# FIG. 9 (top) depicts a schematic of Jurkat iSynPro eGFP:ffluc reporter cells. Jurkat iSynPro eGFP:ffluc reporter cells feature a Jurkat cell line lentivirally transduced to stably express a inducible synthetic promoter (iSynPro WO2018213332A1) regulating the expression of an enhanced green fluorescent protein (eGFP) fused to bioluminescent reporter firefly luciferase (ffluc). This line was then clonally selected by limiting dilution. […]
# Jurkat iSynPro eGFP:ffluc assays are also depicted in FIG. 9 (bottom). […] At the 24 hr timepoint, cells were collected and evaluated by flow cytometry. Cells were initially stained for CD33 to gate out target cell lines before they were evaluated for GFP expression by positivity and/or mean fluorescence intensity (MFI). […]
# B7H3CAR-3Gly-EBD(4OHT) [1] = target: T3, B7H3CAR-3Gly-EBD(4OHT) (Homo sapiens, UniProt P03372, G400V/L544A/M543A); assay: Meso Scale Diagnostic cytokine release assay; type: cell-based; conditions: 24 hr drug culture 0-500 nM, 24 hr co-incubation with tumor lines
# T3 construct: expressed in transfected cells; T cells by b52 and b55
# T3 sequence (P03372 282-595 G400V/M543A/L544A): T1 sequence (P03372 282-595 E353A) with A72E, G119V, M262A, L263A
# Description: FIGS. 19A, 19B. […] (20A and 20B) Cytokine release was evaluated using a Meso Scale Diagnostic assay. […] Following the 24 hr incubation the supernatant from each co-incubation was collected and run on the MESO QuickPlex SQ 120 instrument to ascertain the amount of cytokine released.
# B7H3CAR-3Gly-EBD(4OHT) [2] = target: T3, B7H3CAR-3Gly-EBD(4OHT); assay: Chromium release assay, specific cell lysis; type: cell-based
# Description: FIG. 18. […] Specific cell lysis was evaluated using a chromium release assay. […] Following the 4 hr incubation the Perkin Elmer TopCount was used to quantify the amount of Cr51 released into each well as tumor lysis occurred.
# [3] = target: T4, B7H3CAR-3Gly-EBD variants (Homo sapiens, UniProt P03372, G521R/L384M/M421G); conditions: B7H3CAR-3Gly-EBD(CMP8) vs K562+mCherry, drug added at 24 hrs
# T4 sequence (P03372 282-595 L384M/M421G/G521R): T1 sequence (P03372 282-595 E353A) with A72E, L103M, M140G, G240R
# Description: (31A) Incucyte Cytotoxicity Assay: B7H3CAR-3Gly-EBD variants. CD4 and CD8 T cells (mixed at a 1:1 ratio) expressing a either B7H3CAR-3Gly-EBD(4OHT), B7H3CAR-3Gly-EBD(CMP8), or B7H3CAR-3Gly-EBD(ES8) were either preincubated for 24 hrs with 500 nM inducer drug or not preincubated. These T cells were subsequently plated with CAR-target expressing tumor lines (K562, and/or Be2) constitutively expressing mCherry (for detection and quantification). […] Plates were placed inside of an Incucyte and imaged every 3-4 hours for several days. mCherry signal was then quantified and plotted as a function of time. […]
# (32A-32C) CD4 and CD8 T cells (mixed at a 1:1 ratio) expressing either B7H3CAR-3Gly-EBD(4OHT), B7H3CAR-3Gly-EBD(CMP8), or B7H3CAR-3Gly-EBD(ES8) (were either preincubated for 24 hrs with 500 nM inducer drug or not preincubated (B7H3CAR-3Gly-EBD(4OHT) received 500 nM 4OHT, B7H3CAR-3Gly-EBD(CMP8) received 500 nM CMP8, B7H3CAR-3Gly-EBD(ES8) received 500 nM ES8). These T cells were subsequently plated with CAR-target expressing tumor lines (K562, and/or Be2) constitutively expressing mCherry (for detection and quantification). Tumors were plated at 10,000 per well, and co-culture was performed at a 4:1 ratio (T cell:tumor cell) with or without the appropriate drug at 500 nM. […]
structure (smiles),measurement,setting,value
C[C@]12CC[C@@H]3c4ccc(/C=C/C(=O)O)cc4CC[C@H]3[C@@H]1CC[C@@H]2O [ES8],CD107a response of EBD(ES8) to drug,EBD(ES8),very sensitive to induction
same,maximum magnitude of induction,EBD(ES8); CD107a,less than its induction with 4OHT
CC/C(=C(\c1ccc(O)cc1)c1ccc(OCCNC)cc1)c1ccccc1 [(Z)-endoxifen],increase in CAR-EBD protein expression (zeta chain band quantification),huCD19CAR-EBD(4OHT),~3 fold
"CC/C(=C(\c1ccc(O)cc1)c1ccc(OCCN(C)C)cc1)c1ccccc1 [4-OHT, 4-hydroxytamoxifen]",increase in CAR-EBD protein expression (zeta chain band quantification),huCD19CAR-EBD(4OHT),~3 fold
O=C1CCC2(Cc3ccc(Cl)cc3)Cc3cc(O)ccc3C2=C1c1ccc(OCCN2CCCCC2)cc1 (centres unmarked) [CMP8],induction of expression at lowest drug level,B7H3 EBD(CMP8) CAR; 0.49 nM of drug,still observed
same,response of EBD(CMP8) mutant (GFP induction),"B7H3 EBD(CMP8) CAR; K562 target, 24 hr",response
same,CD107a response of EBD(ES8) to drug,EBD(ES8),does not respond to
same,regulation of CAR activity (cytokine release),B7H3CAR-3Gly-EBD(4OHT) [1],is not regulated by
same,specific lysis,B7H3CAR-3Gly-EBD(4OHT) [2]; 500 nM,0%
same,regulation of CAR activity (specific cell lysis),"B7H3CAR-3Gly-EBD(4OHT) [2]; 24 hr drug culture 0-500 nM, 4 hr co-incubation with Cr-51 tumor line",is not regulated by
same,change in tumor growth kinetics once activated,[3],immediate
